# Assay results taken from US11890324B2, “Compounds for use in inducing myocardial perfusion recovery” (Epoqe Pharma ApS, priority 2018, dated 2024).
# Values joined by “and” are separate entries in the source; they are usually repeats but may differ in a detail not shown here. Equal values may be shown once. “Also recorded” adds a separate entry of the source.
# Experiments:
# [1] = system: coronary (left anterior descending artery, LAD) artery segments; assay: Vasodilation of isolated precontracted artery segments (wire myograph), coronary artery; type: cell-based, rat
# Protocol: (§1) Basilar, mesenteric and coronary arteries were isolated immediately and ring artery segments were stored in ice cold PSS buffer before being mounted on 40 μm stainless steel wires in a Multi Wire Myograph System organ bath (model 610M, Danish Myo Technology A/S, Denmark). Each segment was immersed in 37° C. PSS solution, continuously aerated with 5% CO2/95% O2 to maintain pH 7.4. […] One wire was connected to a micrometer screw enabling adjustments of the distance between the wires. The other wire was connected to a force displacement transducer attached to an analogue-digital converter unit (ADInstruments, Chalgrove, UK).
# (§2) Measurements of vascular tone were recorded using the data acquisition hardware Power Lab unit (ADInstruments). To ensure optimal conditions for maximal force development, each artery segment was carefully stretched to 90% of the internal circumference that the vessel would have under the passive transmural pressure of 100 mm Hg. Following an equilibration period of approximately 20 min, each segment was exposed twice to KPSS to confirm smooth muscle cell viability and the reproducibility of depolarization-induced contractions.
# After 15 min equilibration, a stable precontraction tone (50-80% of the KPSS-induced steady state contraction) was induced in arterial segments by PGF2α (3-10 μM). […]
# Vasodilation is expressed as percentage of the remaining precontraction tone induced by PGF2α. […] Active tension was determined by subtracting the passive tension (resting tension in PSS) from the total tension (during KPSS or PGF2α challenge).
# (§3) All pharmacological data were analysed using Prism 7.02 (GraphPad Software Inc., San Diego, CA) and given as mean±S.E.M. For all analyses, the data were unweighted and each y value (mean of replicates for each individual experiment) was considered an individual point.
# (§4) Differences in pEC50 and Emax values were analysed with paired (animal) t-tests and considered significant as P<0.05.
# [2] = system: peripheral (mesenteric) artery segments; assay: Vasodilation of isolated precontracted artery segments (wire myograph), mesenteric artery; type: cell-based, rat
# Protocol: as §1, §2
# (§5) After 15 min equilibration, a stable precontraction tone (50-80% of the KPSS-induced steady state contraction) was induced in arterial segments by PGF2α (3-10 μM).
# (§6) Concentration-dependent vasodilatory responses of artery segments were normalized as percentage of precontraction remaining.
# (§7) Vasodilation is expressed as percentage of the remaining precontraction tone induced by PGF2α. Vessel wall tension=Force/(vessel wall length), where vessel wall length=2×segment length. Active tension was determined by subtracting the passive tension (resting tension in PSS) from the total tension (during KPSS or PGF2α challenge).
# as §3, §4
# [3] = system: cerebral (basilar) artery segments; assay: Vasodilation of isolated precontracted artery segments (wire myograph), basilar artery; type: cell-based, rat
# Protocol: as §1, §2, §5, §6, §7, §3, §4
# [4] = system: coronary LAD artery segments; assay: CGRP-agonist sensibilization: repeated dose-response and artery culture, coronary LAD; type: cell-based, rat
# Source text: (§8) Artery segments were divided for comparison of the effect of Compound I and CGRP in fresh and cultured artery segments, respectively.
# [5] = system: mesenteric artery segments; assay: CGRP-agonist sensibilization: repeated dose-response and artery culture, mesenteric artery; type: cell-based, rat; settings: isolated mesenteric artery
# Source text: as §8
# [6] = biological target: T1, CGRP receptor (Homo sapiens, UniProt O60894+Q16602); settings: literature (Sheykhzade 2018; Nilsson 2016); cited from earlier work
# T1 construct: host or cells: naturally occurring cells, recombinant CGRP receptor expressing cell lines, isolated artery segments (none specified)
# [7] = system: hypertension in experimental animals; settings: cited from earlier work
# [8] = system: rats with acute myocardial infarction (permanent LAD occlusion); assay: Rat model of acute myocardial infarction (permanent LAD occlusion), myocardial perfusion imaging by SPECT/CT
# Protocol: Experimental myocardial infarction is induced by LAD ligation in rats. Size of the acute myocardial perfusion defect is determined by myocardial perfusion imaging using SPECT/CT. […] All surviving rats underwent follow-up myocardial perfusion imaging using SPECT/CT 21 days after the infarct to determine the final infarct size.
# AMI surgery was conducted using the procedure for permanent LAD occlusion.
# The rats were anaesthetized with 4% sevoflurane. Rats were intubated and ventilated (UNO micor-ventilator-O3, Netherlands) and maintained anaesthetized with sevuflorane 2.5% to 4%. Rats were placed on a heated surface during surgery. In the rat's tail vein a 24G intravenous catheter was placed (Vasofix® Safety, Braun, Denmark). Before incision the rats were pain treated subcutaneously with Buprenorphine 0.05 mg/kg. After surgery the rats were paintreated four times the first 24 hours and three times the next 24-72 hours.
# After insuring sterile surgical conditions, an incision was made in the skin and a thoracotomy was performed. This was placed at either the third or fourth intercostal space depending on size. The pericardium was identified and opened. After inspection of the heart, the LAD was identified and ligated caudal of its origin with a 5-0 polypropylene suture. The myocardium was visually observed for ischemia. If there was no discoloration of the myocardium, another suture was made until ischemia was confirmed by discoloration of the myocardium. One minute after ligation, the rats were injected intravenously with 99-technetium sestamibi to determine the acute perfusion defect. After injection of sestamibi, suture type vicryl 4-0 was used to close the thoracotomy, muscle layer and skin.
# Rats underwent single photon emission computer tomography (SPECT) on the day of the surgery and 21 days post-surgery to determine acute and final perfusion defect size. Imaging was performed on a preclinical SPECT/CT scanner (Mediso Nanoscan, Hungary). The rats were anesthetized with sevuflorane 4% for SPECT-scan to be obtained. On the day of the surgery, the rats were perioperatively injected with 99-technetium Sestamibi (median 106 mBq [99; 116]) as described above. On the 21-days follow-up the rats were anesthetized with sevoflurane 4%. In the rat's tail vein an 24G intravenous catheter was placed (Vasofix® Safety, Braun, Denmark). After the catheter was placed, the rats were injected with 99-tecnetium (median 122 [106; 129]).
# [9] = all completers, 21 days after infarct, mean ± SEM
# [10] = subgroup with acute perfusion defect < 15%, 21 days, mean ± SEM
# T1 sequence (Q16602 23-461): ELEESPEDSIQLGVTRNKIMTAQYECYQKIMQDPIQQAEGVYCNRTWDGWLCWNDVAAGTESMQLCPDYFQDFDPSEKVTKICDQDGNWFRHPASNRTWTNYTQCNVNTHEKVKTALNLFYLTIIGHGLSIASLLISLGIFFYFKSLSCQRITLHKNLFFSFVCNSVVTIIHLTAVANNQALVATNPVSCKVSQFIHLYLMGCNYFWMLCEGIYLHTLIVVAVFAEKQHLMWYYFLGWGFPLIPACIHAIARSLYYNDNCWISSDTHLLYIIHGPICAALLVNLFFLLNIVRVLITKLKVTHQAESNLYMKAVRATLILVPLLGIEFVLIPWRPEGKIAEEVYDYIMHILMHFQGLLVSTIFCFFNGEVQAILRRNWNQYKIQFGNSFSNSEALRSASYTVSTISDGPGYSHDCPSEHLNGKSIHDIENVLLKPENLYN
# T1 sequence (O60894 27-148): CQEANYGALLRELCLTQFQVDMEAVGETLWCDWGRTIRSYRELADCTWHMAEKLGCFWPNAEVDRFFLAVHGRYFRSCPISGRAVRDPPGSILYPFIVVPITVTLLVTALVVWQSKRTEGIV
substance,measurement,setting,value
N-alpha-[2-(2-{2-[(S)-4-Carboxy-4-(17-carboxyheptadecanoylamino)-butyrylamino]-ethoxy}ethoxy)acetyl](Ser1]alpha-human CGRP peptide [Compound I],Vasodilation efficacy compared with CGRP (in words),[1]; coronary artery,comparable efficacy; also recorded: not different
same,Potency ratio (EC50 CGRP: EC50 Compound 1),[1]; coronary artery segments,~1
same,Vasodilatory potency compared with CGRP (in words),[1]; coronary artery segments,equipotent; also recorded: similar; also recorded: not different
same,Potency difference between CGRP and Compound I,[2]; mesenteric artery,5-10 fold
same,Potency ratio (EC50 CGRP: EC50 Compound 1),[2]; mesenteric artery,0.1-0.2
same,Vasodilation efficacy compared with CGRP (in words),[2]; mesenteric artery,comparable efficacy
same,Vasodilatory potency compared with CGRP (in words),[2]; mesenteric artery,lower
same,Potency in peripheral compared with coronary artery (in words),[2]; peripheral (mesenteric) versus coronary artery,not lower
same,Vasodilation efficacy compared with CGRP (in words),[3]; basilar artery,comparable efficacy
same,Vasodilatory potency compared with CGRP (in words),[3]; basilar artery,lower
same,Potency difference between CGRP and Compound I,[3]; cerebral artery,5-10 fold
same,Potency ratio (EC50 CGRP: EC50 Compound 1),[3]; cerebral artery,0.1-0.2
same,Effect of repeated cumulative stimulation on potency ratio Compound I/CGRP (in words),[4],does not change the potency ratio
same,Effect of artery culture on CGRP-agonist-induced vasodilation (in words),[4]; culture 24 h at 37° C. in absence and presence of 10 nM Compound I,induce sensibilization
same,Effect of repeated cumulative stimulation on potency (in words),[4]; second dose-response curve 90-120 minutes after the first,shift in potency towards significant sensitization
same,Potency ratio between Compound I and CGRP after repeated dose-response (in words),[5],maintained
same,CGRP-agonist-induced CGRP sensibilization (in words),[5]; repeated dose-response and culture,no CGRP-agonist-induced CGRP sensibilization
same,In vitro potency lower than that of CGRP,[6],approximately 10 times
same,Effect on hypertension (in words),[7],reversing hypertension and complications of hypertension
same,"Perfusion recovery, %",[8]; [9],55.1±6.6% and 55.1 ± 6.4%
same,"Perfusion recovery, SRS",[8]; [9],6.5 ± 1 SRS
same,Animals surviving the surgery and the 3 weeks recovery period (survival rate),"[8]; rat, in vivo",75%
same,Effect on survival rate (in words),"[8]; rat, in vivo",tendency (not statistically significant) towards an increased survival rate
same,Further rats that died during the 21-days follow-up period,"[8]; rat, in vivo",14%
same,"Perfusion recovery in subgroup, %",[8]; [10],66.2 ± 9.0%
same,"Perfusion recovery in subgroup, SRS",[8]; [10],3.8 ± 0.6 SRS
same,Effect on myocardial perfusion recovery (in words),"[8]; treatment for 3 successive days after experimental AMI, 3 weeks",large improvement of myocardial perfusion recovery; also recorded: significant improved recovery of perfusion defect
N-alpha-[2-(2-{2-[(S)-4-Carboxy-4-(17-carboxyheptadecanoylamino)butyryl-amino]ethoxy}ethoxy)acetyl](Ser1]beta-human CGRP peptide [Compound II],In vitro potency lower than that of CGRP,[6],approximately 10 times
